Reference: patent publication US10160755B2 (Plexxikon Inc., priority 2015, dated 2018)
Residue numbers refer to the chain shown, from its start.

What was measured:
[1] = target: T1, BA/F3-FLT3-ITD + F691L cells (Homo sapiens, UniProt P36888, F691L, cells depend on it, form not given); test: BA/F3-FLT3-ITD + F691L cell proliferation assay (CellTiter-Glo); format: cell-based, murine; details: BaF3 FLT3 ITD/F691L cells; read-out: Cell Activity (IC50 μM) BaF3_FLT3_ITD/F691L
T1 sequence (P36888 1-993 F691L): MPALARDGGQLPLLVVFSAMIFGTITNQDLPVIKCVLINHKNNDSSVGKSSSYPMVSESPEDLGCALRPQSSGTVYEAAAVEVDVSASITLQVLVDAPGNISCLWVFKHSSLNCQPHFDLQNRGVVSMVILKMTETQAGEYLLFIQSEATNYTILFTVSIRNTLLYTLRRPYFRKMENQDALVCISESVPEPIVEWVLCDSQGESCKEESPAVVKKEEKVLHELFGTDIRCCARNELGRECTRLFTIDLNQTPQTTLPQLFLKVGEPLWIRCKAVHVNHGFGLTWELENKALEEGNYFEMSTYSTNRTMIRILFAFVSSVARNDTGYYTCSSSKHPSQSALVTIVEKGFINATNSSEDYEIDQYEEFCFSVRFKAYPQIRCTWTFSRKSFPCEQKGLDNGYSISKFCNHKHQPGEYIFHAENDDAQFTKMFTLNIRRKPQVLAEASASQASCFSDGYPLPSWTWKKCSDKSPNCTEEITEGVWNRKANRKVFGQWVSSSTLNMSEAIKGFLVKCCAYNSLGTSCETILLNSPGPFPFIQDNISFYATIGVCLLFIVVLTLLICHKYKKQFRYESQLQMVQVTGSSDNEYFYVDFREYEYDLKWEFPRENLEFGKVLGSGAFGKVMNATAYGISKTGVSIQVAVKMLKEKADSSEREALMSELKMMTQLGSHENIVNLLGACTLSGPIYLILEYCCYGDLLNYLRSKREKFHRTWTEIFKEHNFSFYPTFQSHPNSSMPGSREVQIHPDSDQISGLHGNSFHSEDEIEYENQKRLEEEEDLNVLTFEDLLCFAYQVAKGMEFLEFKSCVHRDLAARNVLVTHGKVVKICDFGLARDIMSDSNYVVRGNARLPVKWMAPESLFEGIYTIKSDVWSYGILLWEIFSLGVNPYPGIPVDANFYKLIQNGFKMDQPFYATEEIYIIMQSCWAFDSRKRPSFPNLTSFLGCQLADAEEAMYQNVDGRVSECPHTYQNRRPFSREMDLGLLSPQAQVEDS
Description: The FLT3 inhibitors may also be assessed using leukemia cell lines that express endogenous FLT3-ITD or cells that are engineered to express wild-type or mutant FLT3. The cells expressing endogenous FLT3 are dependent upon FLT3 catalytic activity for growth. For the engineered cells, murine BA/F3 cells were transfected with full-length FLT3 (either wild-type, or containing the ITD, D835Y, or F691L mutations, as noted). The parental BA/F3 cells are dependent upon Interleukin-3 (IL-3) for survival, and introduction of the FLT3 constructs renders these cells dependent upon FLT3 kinase activity when cultured in the absence of IL-3. Engineered BA/F3 cell growth assays can be performed in either the absence or presence of IL-3, to assess the compound inhibition of FLT3 or to detect the presence of off-target activity, respectively. Inhibitors of FLT3 kinase activity reduce or eliminate the FLT3 oncogenic signaling, resulting in reduced cell proliferation. This inhibition is measured as a function of compound concentration to assess IC50 values.
Cells were seeded at 1×10^4 cells per well of a 96 well cell culture plate in 50 μl of cell culture medium. Compounds were dissolved in DMSO, typically at a concentration of 5 mM and were serially diluted 1:3 for a total of eight points and added to the cells to final concentrations of 10, 3.3, 1.1, 0.37, 0.12, 0.041, 0.014 and 0.0046 μM in 100 μl cell culture medium (final concentration 0.2% DMSO). […] The cells were incubated at 37° C., 5% CO2 for three days. CellTiter-Glo Buffer (Promega Cell Viability Assay catalog #G7573) and substrate were equilibrated to room temperature, and enzyme/substrate Recombinant Firefly Luciferase/Beetle Luciferin was reconstituted. The cell plates were equilibrated to room temperature for 30 minutes, then lysed by addition of an equivalent volume of the Celltiter-Glo Reagent. The plate was mixed for 10 minutes on a plate shaker to lyse the cells. The plates were read on a Tecan M1000 using Luminescence protocol modified to read 0.1 s per well. The luminescence reading assesses the ATP content, which correlates directly with cell number such that the reading as a function of compound concentration was used to determine the IC50 value.

FLT3-ITD = target: T2, FLT3-ITD (Homo sapiens, UniProt P36888); test: FLT3-ITD biochemical kinase assay (AlphaScreen)
T2 construct: FLT3-ITD; Invitrogen #PV6190
T2 sequence (P36888 1-993): T1 sequence (P36888 1-993 F691L) with L691F
Method in brief: (§1)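 Compounds were tested against recombinant enzyme using AlphaScreen detection of tyrosine-phosphorylated biotin-poly(Glu4-Tyr) (30 nM final). The ATP concentration differed by construct: 10 μM for D835Y, 100 μM for ITD.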

FLT3-D835Y = target: T3, FLT3-D835Y (Homo sapiens, UniProt P36888, D835Y); test: FLT3-D835Y biochemical kinase assay (AlphaScreen)
T3 construct: purchased Invitrogen PV3967
T3 sequence (P36888 27-993 D835Y): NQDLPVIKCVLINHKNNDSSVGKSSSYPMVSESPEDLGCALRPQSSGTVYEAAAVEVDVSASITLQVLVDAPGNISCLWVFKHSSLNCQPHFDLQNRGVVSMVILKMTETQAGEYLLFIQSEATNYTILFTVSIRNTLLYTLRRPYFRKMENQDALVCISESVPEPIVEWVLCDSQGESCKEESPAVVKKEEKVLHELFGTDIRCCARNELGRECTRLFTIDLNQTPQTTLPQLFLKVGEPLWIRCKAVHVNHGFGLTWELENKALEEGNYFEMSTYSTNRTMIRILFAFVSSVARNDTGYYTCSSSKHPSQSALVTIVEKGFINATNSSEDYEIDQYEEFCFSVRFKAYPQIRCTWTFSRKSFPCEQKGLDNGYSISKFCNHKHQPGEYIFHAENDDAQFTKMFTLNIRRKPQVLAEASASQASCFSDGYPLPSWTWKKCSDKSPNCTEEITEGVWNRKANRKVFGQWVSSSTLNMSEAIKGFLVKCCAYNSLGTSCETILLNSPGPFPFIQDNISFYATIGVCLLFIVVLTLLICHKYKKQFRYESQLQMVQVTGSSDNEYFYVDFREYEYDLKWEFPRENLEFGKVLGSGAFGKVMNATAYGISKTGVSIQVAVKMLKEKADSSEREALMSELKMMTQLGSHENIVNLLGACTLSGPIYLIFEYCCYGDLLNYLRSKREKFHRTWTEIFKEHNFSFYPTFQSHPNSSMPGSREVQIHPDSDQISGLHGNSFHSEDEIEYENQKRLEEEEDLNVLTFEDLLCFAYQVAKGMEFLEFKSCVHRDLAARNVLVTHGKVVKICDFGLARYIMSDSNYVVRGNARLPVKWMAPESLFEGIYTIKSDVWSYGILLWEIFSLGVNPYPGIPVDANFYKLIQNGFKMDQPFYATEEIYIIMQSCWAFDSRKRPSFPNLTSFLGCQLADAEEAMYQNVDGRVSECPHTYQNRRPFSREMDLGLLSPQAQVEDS
Method in brief: as §1

SMILES | GI50 [1] [µM] | IC50 (FLT3-ITD) [µM] | IC50 (FLT3-D835Y) [µM]
CN1CCN(c2ccc(-c3cnc4[nH]cc(-c5ccc6ncn(C(C)(C)C)c6c5)c4n3)cn2)CC1 [P-333, 7-(3-tert-butylbenzimidazol-5-yl)-2-[6-(4-methylpiperazin-1-yl)-3-pyridyl]-5H-pyrrolo[2,3-b]pyrazine] | 0.0001 to 1 | 0.0001 to 1 | –
N#Cc1cc(-c2cnc3[nH]cc(-c4ccc5ncn(C6CCCNC6)c5c4)c3n2)ccn1 (stereo not shown) [P-304, 4-[7-[3-(3-piperidyl)benzimidazol-5-yl]-5H-pyrrolo[2,3-b]pyrazin-2-yl]pyridine-2-carbonitrile] | 0.0001 to 1 | – | 0.0001 to 1
CC(C)(C)n1cnc2ccc(-c3c[nH]c4ncc(-c5ccnc(N6CCNCC6)c5)nc34)cc21 [P-307, 7-(3-tert-butylbenzimidazol-5-yl)-2-(2-piperazin-1-yl-4-pyridyl)-5H-pyrrolo[2,3-b]pyrazine] | 0.0001 to 1 | – | 0.0001 to 1
c1cc(N2CCOCC2)ccc1-c1cnc2[nH]cc(-c3ccc4ncn(C5CCCNC5)c4c3)c2c1 (stereo not shown) [P-300, 4-[4-[3-[3-(3-piperidyl)benzimidazol-5-yl]-1H-pyrrolo[2,3-b]pyridin-5-yl]phenyl]morpholine] | 0.0001 to 1 | – | 0.0001 to 1
COc1cnc2[nH]cc(-c3ccc4ncn(-c5ccc(F)c(Cl)c5)c4c3)c2c1 [P-109, 1-(3-chloro-4-fluoro-phenyl)-6-(5-methoxy-1H-pyrrolo[2,3-b]pyridin-3-yl)benzimidazole] | 0.0001 to 1 | – | 0.0001 to 1
CC(C)(C)n1cnc2ccc(-c3c[nH]c4ncc(-c5ccc(N6CCOCC6)cc5)cc34)cc21 [P-299, 4-[4-[3-(3-tert-butylbenzimidazol-5-yl)-1H-pyrrolo[2,3-b]pyridin-5-yl]phenyl]morpholine] | 0.0001 to 1 | – | 0.0001 to 1
Cn1cnc2ccc(-c3c[nH]c4ncc(C(=O)Nc5cccc(F)c5)cc34)cc21 [P-177, N-(3-fluorophenyl)-3-(3-methylbenzimidazol-5-yl)-1H-pyrrolo[2,3-b]pyridine-5-carboxamide] | 0.0001 to 1 | – | 0.0001 to 1
c1cc(-c2cnc3[nH]cc(-c4ccc5ncn(C6CCCNC6)c5c4)c3n2)cc(N2CCNCC2)n1 (stereo not shown) [P-308, 2-(2-piperazin-1-yl-4-pyridyl)-7-[3-(3-piperidyl)benzimidazol-5-yl]-5H-pyrrolo[2,3-b]pyrazine] | 0.0001 to 1 | – | 0.0001 to 1
c1cc(-c2cnc3[nH]cc(-c4ccc5ncn(C6CCCNC6)c5c4)c3n2)cc(N2CCOCC2)c1 (stereo not shown) [P-303, 4-[3-[7-[3-(3-piperidyl)benzimidazol-5-yl]-5H-pyrrolo[2,3-b]pyrazin-2-yl]phenyl]morpholine] | 0.0001 to 1 | – | 0.0001 to 1
CC(C)(C)n1cnc2ccc(-c3c[nH]c4ncc(-c5cccc(N6CCNCC6)c5)nc34)cc21 [P-302, 7-(3-tert-butylbenzimidazol-5-yl)-2-(3-piperazin-1-ylphenyl)-5H-pyrrolo[2,3-b]pyrazine] | 0.0001 to 1 | – | 0.0001 to 1
CN1CCN(c2ccc(-c3cnc4[nH]cc(-c5ccc6ncn(C7CCCNC7)c6c5)c4n3)cn2)CC1 (stereo not shown) [P-334, 2-[6-(4-methylpiperazin-1-yl)-3-pyridyl]-7-[3-(3-piperidyl)benzimidazol-5-yl]-5H-pyrrolo[2,3-b]pyrazine] | 0.0001 to 1 | 0.0001 to 1 | –
